In general, MIC refers to the lowest concentration that inhibits growth of the organism.

In brackets after ≈: the same amount, converted by molar mass. Bounds are passed on as bounds.

The record followed here is US10647675B2 (priority 2015, dated 2020).

Assay [1] relates to Trichophyton mentagrophytes SM-110. Briefly: Antifungal activity evaluation test: minimum inhibitory concentration (MIC), broth dilution by reference to CLSI M38-A2. As to conditions: SM110, read-out: MIC (T. menta.). Format: cell-based. How it is done:
(§1) The minimum inhibitory concentration (MIC) for Trichophyton mentagrophytes and Trichophyton rubrum was measured by the following procedure by reference to Clinical and Laboratory standards Institute (CLSI) guidelines M38-A2. Reference document for the measurement method: National Committee for a Clinical Laboratory Standards. Reference method for broth dilution antifungal susceptibility testing of filamentous fungi. Approved standard Second edition M38-A2. Wayne, Pa.: National Committee for a Clinical Laboratory Standards, 2008. • Test compound solution: A test compound was dissolved in dimethyl sulfoxide (DMSO) at a concentration of 2.5 mg/mL to give a stock solution. The stock solution was appropriately diluted with DMSO to prepare a 2-fold dilution series. As control compounds, terbinafine and amorolfine were used. • Test strains: Trichophyton mentagrophytes SM-110 and Trichophyton rubrum KD-1130 were used. • Preparation of fungal culture to be inoculated: The above-mentioned test strain was suspended in 0.05% Tween 80-containing saline, and the fungi of the genus Trichophyton were prepared to a fungal concentration of 1×10^6 cells/mL by using a hemocytometer. Then, using MOPS-buffered RPMI 1640 medium (pH 7.0) as a test medium, a fungal culture of the fungi of the genus Trichophyton was diluted 250-fold (4×10^3 cells/mL) to give a fungal culture for inoculation. • MIC measurement of genus Trichophyton fungi: MOPS-buffered RPMI 1640 medium (pH 7.0) was dispensed by 100 μL to given wells of a 96 well U-bottom microplate. Then, the test compound solution (2 μL) was added, the mixture was sufficiently stirred by a plate mixer. The fungal culture (100 μL) was inoculated and the mixture was cultured at 35° C. for 4 days (final fungal concentration: 2×10^3 cells/mL). After the culture, the minimum drug concentration of a well in which a growth inhibitory action of not less than 80% was visually observed as compared to a growth control was taken as a minimum inhibitory concentration (MIC: μg/mL).
(§2) The abbreviations in the Tables mean the following fungi and compounds. • T. menta.: Trichophyton mentagrophytes • T. rubrum: Trichophyton rubrum • TBF: terbinafine • AMF: amorolfine
For orientation: Broth dilution looks for growth in wells or tubes with falling amounts of substance.

Assay [2] concerns Trichophyton rubrum KD-1130. Described as above. It is filed as cell-based. As to conditions: KD1130, read-out: MIC (T. rubrum). As for the experimental part:
as §1, §2

Regarding `COc1ccccc1-c1c(C)ccnc1Oc1ccc(C(F)(F)F)nc1` [I-65, 3-(2-methoxyphenyl)-4-methyl-2-{[6-(trifluoromethyl)pyridin-3-yl]oxy}pyridine], the values for the MIC in assay [1] and in assay [2] were 0.2 to 0.78 µg/mL (≈ 0.555 to 2.16 µM) and no more than 0.1 µg/mL, respectively.

For `CC(F)(F)c1ccc(Oc2ncccc2-c2cncc3nccnc23)cn1` [I-111, 8-(2-{[6-(1,1-difluoroethyl)pyridin-3-yl]oxy}pyridin-3-yl)pyrido[3,4-b]pyrazine], the minimal inhibitory concentration (MIC) in assay [1] and in assay [2] was 0.2 to 0.78 µg/mL (≈ 0.547 to 2.13 µM) throughout.

Turning to `COc1cc(-c2cccnc2Oc2ccc(C(F)F)nc2)ccc1F` [I-75, 2-{[6-(difluoromethyl)pyridin-3-yl]oxy}-3-(4-fluoro-3-methoxyphenyl)pyridine], the MIC in assay [1] and in assay [2] was no more than 0.1 µg/mL in each case.

On to `COc1ccncc1-c1cccnc1Oc1ccc(OC(F)(F)F)cc1` [I-237, 4′-methoxy-2-[4-(trifluoromethoxy)phenoxy]-3,3′-bipyridine], for which the MIC in assay [1] and in assay [2] was no more than 0.1 µg/mL each time.

As for `FC(F)(F)c1ccc(Oc2ncccc2-c2cnn3ccccc23)cn1` [I-49, 3-(2-{[6-(trifluoromethyl)pyridin-3-yl]oxy}pyridin-3-yl)-pyrazolo[1,5-a]pryidine], the minimum inhibitory concentration (MIC) in assay [1] and in assay [2] was 1.56 to 6.25 µg/mL (≈ 4.38 to 17.5 µM) in each case.

Consider `COc1cccc(-c2cccnc2Oc2ccc(C(F)(F)F)cc2)n1` [I-213, 6-methoxy-2′-[4-(trifluoromethyl)phenoxy]-2,3′-bipyridine], for which the minimum inhibitory concentration (MIC) in assay [1] and in assay [2] was no more than 0.1 µg/mL throughout.

For the compound `FC(F)(F)c1ccc(Oc2ncccc2-c2cccc3cc[nH]c23)cn1` [I-42, 7-(2-{[6-(trifluoromethyl)pyridin-3-yl]oxy}pyridin-3-yl)-1H-indole], the MIC in assay [1] and in assay [2] was 0.2 to 0.78 µg/mL (≈ 0.563 to 2.2 µM) throughout.

Regarding `C=Cc1ccc(Oc2ncccc2-c2cnccc2OC)cc1` [I-258, 4′-methoxy-2-(4-vinylphenoxy)-3,3′-bipyridine], the minimal inhibitory concentration (MIC) in assay [1] and in assay [2] was no more than 0.1 µg/mL throughout.

On to `COc1c(Cl)cncc1-c1cncnc1Oc1ccc(C(F)(F)F)cc1` [I-331, 5-(5-chloro-4-methoxypyridin-3-yl)-4-[4-(trifluoromethyl)phenoxy]pyrimidine], for which the minimum inhibitory concentration (MIC) in assay [1] and in assay [2] was no more than 0.1 µg/mL throughout.

For the compound `FC(F)(F)c1ccc(Oc2ncccc2-c2cccc3ncccc23)cn1` [I-36, 5-(2-{[6-(trifluoromethyl)pyridin-3-yl]oxy}pyridin-3-yl)quinoline], the minimum inhibitory concentration (MIC) in assay [1] was no more than 0.1 µg/mL; in assay [2], 0.2 to 0.78 µg/mL (≈ 0.544 to 2.12 µM).

Take `CCc1ccc(Oc2ncccc2-c2ccccc2OC)cn1` [I-124, 2-[(6-ethylpyridin-3-yl)oxy]-3-(2-methoxyphenyl)pyridine]: the MIC in assay [1] and in assay [2] was 0.2 to 0.78 µg/mL (≈ 0.653 to 2.55 µM) throughout.

Turning to `COc1cc(F)ccc1-c1cccnc1Oc1cnc(N(C)Cc2cocn2)nc1` [I-193, 5-{[3-(4-fluoro-2-methoxyphenyl)pyridin-2-yl]oxy}-N-methyl-N-(oxazol-4-ylmethyl)pyrimidin-2-amine], the MIC in assay [1] and in assay [2] was no more than 0.1 µg/mL throughout.

For the compound `COC(=O)N(C)CC(F)(F)c1ccc(Oc2ncccc2-c2ccccc2OC)cn1` [I-152, methyl [2,2-difluoro-2-(5-{[3-(2-methoxyphenyl)pyridin-2-yl]oxy}pyridin-2-yl)ethyl](methyl)carbamate], the MIC in assay [1] and in assay [2] was 0.2 to 0.78 µg/mL (≈ 0.466 to 1.82 µM) in each case.

Regarding `COc1c(Cl)cncc1-c1cccnc1Oc1ccc(C(C)(F)F)nc1` [I-100, 5′-chloro-2-{[6-(1,1-difluoroethyl)pyridin-3-yl]oxy}-4′-methoxy-3,3′-bipyridine], the minimal inhibitory concentration (MIC) in assay [1] and in assay [2] was no more than 0.1 µg/mL in each case.

As to `COc1ccccc1-c1cccnc1Sc1ccc(C(F)(F)F)cc1` [I-436, 3-(2-methoxyphenyl)-2-{[4-(trifluoromethyl)phenyl]thio}pyridine], the minimal inhibitory concentration (MIC) in assay [1] and in assay [2] was no more than 0.1 µg/mL in each case.

As for `FC(F)(F)c1ccc(Oc2ncccc2-c2cccc3nccnc23)cc1` [I-224, 5-{2-[4-(trifluoromethyl)phenoxy]pyridin-3-yl}quinoxaline], the minimal inhibitory concentration (MIC) in assay [1] and in assay [2] was no more than 0.1 µg/mL in each case.

As to `COc1cc(-c2cncnc2Oc2ccc(C(C)(F)F)nc2)c(F)cc1F` [I-334, 4-{[6-(1,1-difluoroethyl)pyridin-3-yl]oxy}-5-(2,4-difluoro-5-methoxyphenyl)pyrimidine], the minimal inhibitory concentration (MIC) in assay [1] and in assay [2] was no more than 0.1 µg/mL each time.

Turning to `COc1cc(-c2cccnc2Oc2ccc(C(F)F)nc2)c(F)cc1F` [I-77, 3-(2,4-difluoro-5-methoxyphenyl)-2-{[6-(difluoromethyl)pyridin-3-yl]oxy}pyridine], the MIC in assay [1] and in assay [2] was no more than 0.1 µg/mL in each case.

For the compound `COc1ccccc1-c1cccnc1Oc1ccc(OCc2ccccc2)nc1` [I-171, 2-{[6-(benzyloxy)pyridin-3-yl]oxy}-3-(2-methoxyphenyl)pyridine], the MIC in assay [1] and in assay [2] was no more than 0.1 µg/mL each time.

With `COc1c(F)cncc1-c1cccnc1Oc1ccc(C(C)(F)F)nc1` [I-98, 2-{[6-(1,1-difluoroethyl)pyridin-3-yl]oxy}-5′-fluoro-4′-methoxy-3,3′-bipyridine], the minimum inhibitory concentration (MIC) in assay [1] and in assay [2] was 0.2 to 0.78 µg/mL (≈ 0.554 to 2.16 µM) each time.

With `COc1ccccc1-c1cccnc1Oc1cnc(C(F)(F)C(F)(F)F)nc1` [I-181, 5-{[3-(2-methoxyphenyl)pyridin-2-yl]oxy}-2-(pentafluoroethyl)pyrimidine], the figures for the MIC in assay [1] and in assay [2] were 0.2 to 0.78 µg/mL (≈ 0.503 to 1.96 µM) and no more than 0.1 µg/mL, respectively.

In the case of `COc1ncccc1-c1cccnc1Oc1ccc2c(c1)CCCC2=O` [I-272, 6-{[2′-methoxy-(3,3-bipyridin)-2-yl]oxy}-3,4-dihydronaphthalen-1(2H)-one], the minimum inhibitory concentration (MIC) in assay [1] and in assay [2] was no more than 0.1 µg/mL in each case.

Turning to `COc1cc(F)ccc1-c1cccnc1Oc1cnc(N(C)CC#N)nc1` [I-189], the MIC in assay [1] and in assay [2] was 0.2 to 0.78 µg/mL (≈ 0.547 to 2.13 µM) in each case.

As for `COc1cc(F)ccc1-c1cccnc1Oc1cnc(CCc2cnn(C)c2)nc1` [I-198, 5-{[3-(4-fluoro-2-methoxyphenyl)pyridin-2-yl]oxy}-2-[2-(1-methyl-1H-pyrazol-4-yl)ethyl]pyrimidine], the MIC in assay [1] and in assay [2] was 0.2 to 0.78 µg/mL (≈ 0.493 to 1.92 µM) throughout.

Regarding `COCC1(c2ccc(Oc3ncccc3-c3cnccc3OC)cc2)CC1` [I-276, 4′-methoxy-2-{4-[1-(methoxymethyl)cyclopropyl]phenoxy}-3,3′-bipyridine], the minimum inhibitory concentration (MIC) in assay [1] and in assay [2] was 0.2 to 0.78 µg/mL (≈ 0.552 to 2.15 µM) in each case.

Consider `COc1cc(F)ccc1-c1cccnc1Oc1ccc(C(F)(F)CO)nc1` [I-154, 2,2-difluoro-2-(5-{[3-(4-fluoro-2-methoxyphenyl)pyridin-2-yl]oxy}pyridin-2-yl)-ethanol], for which the MIC in assay [1] and in assay [2] was 0.2 to 0.78 µg/mL (≈ 0.531 to 2.07 µM) throughout.

Turning to `COc1c(F)cncc1-c1cccnc1Oc1ccc(C(F)F)cc1` [I-356, 2-[4-(difluoromethyl)phenoxy]-5′-fluoro-4′-methoxy-3,3′-bipyridine], the MIC in assay [1] and in assay [2] was no more than 0.1 µg/mL in each case.

As to `COc1ncccc1-c1cccnc1Oc1ccc(C(C)C)cc1` [I-447], the MIC in assay [1] and in assay [2] was no more than 0.1 µg/mL throughout.

`COc1ncccc1-c1cccnc1Oc1ccc(C(F)F)cc1` [I-443]: the MIC in assay [1] and in assay [2] was no more than 0.1 µg/mL in each case.

As for `COc1ccccc1-c1cccnc1Oc1cnc2c(c1)CCCC2(F)F` [I-142, 8,8-difluoro-3-{[3-(2-methoxyphenyl)pyridin-2-yl]oxy}-5,6,7,8-tetrahydroquinoline], the MIC in assay [1] and in assay [2] was no more than 0.1 µg/mL each time.

On to `CCN(C)CC(F)(F)c1ccc(Oc2ncccc2-c2ccccc2OC)cn1` [I-149, N-ethyl-2,2-difluoro-2-(5-{[3-(2-methoxyphenyl)pyridin-2-yl]oxy}-pyridin-2-yl)-N-methylethanamine], for which the MIC in assay [1] and in assay [2] was 0.2 to 0.78 µg/mL (≈ 0.501 to 1.95 µM) in each case.

On to `COc1ccccc1-c1cccnc1Oc1cnc2c(c1)CCCC2O` (stereo not shown) [I-140, 3-{[3-(2-methoxyphenyl)pyridin-2-yl]oxy}-5,6,7,8-tetrahydroquinolin-8-ol], for which the MIC in assay [1] and in assay [2] was 0.2 to 0.78 µg/mL (≈ 0.574 to 2.24 µM) throughout.

For the compound `CSc1ccccc1-c1cccnc1Oc1ccc(C(F)(F)F)nc1` [I-14], the MIC in assay [1] and in assay [2] was no more than 0.1 µg/mL throughout.

With `COc1cc(-c2cncnc2Oc2ccc(C(F)(F)F)nc2)c(F)cc1F` [I-329, 5-(2,4-difluoro-5-methoxyphenyl)-4-{[6-(trifluoromethyl)pyridin-3-yl]oxy}pyrimidine], the minimum inhibitory concentration (MIC) in assay [1] and in assay [2] was no more than 0.1 µg/mL each time.

On to `CC(F)(F)c1ccc(Oc2ncccc2-c2cccc3ccnn23)cn1` [I-115, 7-(2-{[6-(1,1-difluoroethyl)pyridin-3-yl]oxy}pyridin-3-yl)pyrazolo[1,5-a]pyridine], for which the MIC in assay [1] and in assay [2] was no more than 0.1 µg/mL each time.
